Test results: patent US5510261A, “Method of controlling the degradation of glycoprotein oligosaccharides produced by cultured Chinese hamster ovary cells” (The Board of Trustees of the Leland Stanford Juniot …, priority 1995, dated 1996)

Test system: neuraminidase present in CHO cell supernatant
Assay: Inhibition of CHO neuraminidase activity, 4MU-NANA artificial substrate assay
Format: biochemical, Chinese hamster
Description: The artificial substrate 2'-(4-methylumbelliferyl)-α-D-N-acetylneuraminic acid (4MU-NANA) was used to assay for neuraminidase activity (modified from Potier et al., Anal. Biochem., 1979, 94, 287). The standard assay for lysate neuraminidase activity contained 0.1M sodium acetate (pH 3-6) or potassium phosphate (pH 6-8) buffer (10 μl of 1 M stock), 1 mM 4MU-NANA (25 μl from a 4 mM aliquot), and the lysate of 0.25 million cells ([…]) in a total volume of 100 μl. Supernatant samples were assayed identically, with supernatant replacing the added cell lysate. The 100 μl samples in plastic 1.5 ml tubes were placed in a 37° C. water bath with a shaker for 30 minutes (sometimes 60 minutes), and the reaction was stopped with 0.9 ml of 0.2M glycine (pH 10.4). […] An HP 1090 Series II HPLC coupled to an HP 1046A flow through fluorescence detector (Hewlett-Packard) was used for automated sample injection and analysis (no column). […] The fluorescence was integrated vs. time and compared to standard 4-methylumbelliferyl dilutions. […]
Aliquots of previously frozen and disrupted cells were thawed to 37° C. and assayed for neuraminidase activity as in the standard assay except the 4MU-NANA concentration varied at 0.1, 0.2, 0.4, 1 and 2 mM (pH 4.5, 5.5, 6.5 and 7.5). […] Kinetic parameters were determined by fitting an integrated form of the Michaelis-Menton equation: […]

SMILES | inhibition of the neuraminidase present in CHO cell supernatant
CC(=O)N[C@H]1[C@H]([C@H](O)[C@H](O)CO)OC(C(=O)O)=C[C@@H]1O [2,3-D, 2,3-dehydro-2-deoxy-N-acetylneuraminic acid] | shown to inhibit
CC(=O)N[C@H]1[C@H]([C@H](O)[C@H](O)CO)OC(O)(C(=O)O)C[C@@H]1O (some centres unmarked) [NANA, N-acetylneuraminicacid] | shown to inhibit
